Marks after values point to notes of the source that are not given here.
How the values were obtained:
Type in all cases: physicochemical
[1] = Hygroscopicity or deliquescency evaluation (moisture adsorption, DVS); details: for Hygroscopicity or deliquescency, conclusion in words: from Table 5; for Hydration state (hydration stage in moisture adsorption): normal temperature, relative humidity of 10 to 95%
Protocol: Hygroscopicity or deliquescency was evaluated as follows by using a moisture adsorption measurement device DVS-1 or DVS-intrinsic (Surface Measurement Systems Limited). Each sample (about 5 mg) was placed into an aluminum plate of which the tare weight had been corrected in advance, and the plate was hung on the precision balance of said device to precisely measure the weight at the start of measurement. The humidity was changed in a stepwise manner in a chamber at 25° C., the weight change was recorded with time, and the equilibrium weight was calculated at each humidity. On the basis of the weight at a dried condition (0% RH), the weight change rate and hydration number at each humidity were calculated.
Hygroscopicity or deliquescency was evaluated as follows by using a moisture adsorption measurement device DVS-1 or DVS-intrinsic (Surface Measurement Systems Limited). Each sample was placed into a cell of which the tare weight had been corrected in advance, and the cell was hung on the precision balance of said device to precisely measure the weight at the start of measurement. The humidity was changed in a stepwise manner, the weight change was recorded with time, and the equilibrium weight was calculated at each humidity. On the basis of the weight of anhydride converted from the amount of water at a dried condition (0% RH) or at the start of measurement observed by an alternative method, the weight change rate at each humidity was calculated.

[2] = Chemical stability evaluation (storage 1 week, liquid chromatography peak area %); details: for Chemical stability, conclusion in words: did not show a significant increase of related substances
Protocol: Each about 1 mg of a sample stored at 60° C. (sealed) or 60° C./75% RH (open) for 1 week and an unstored sample (at the start of test) was dissolved into a mixed solution of acetonitrile/water (1:1) (5 mL) to obtain each sample solution. A test was carried out by liquid chromatographic method under the following conditions to measure each peak area (%).
Each peak area (%) was measured by using Waters ACQUITY UPLC under the following conditions. • Detector: Photodiode array (measurement wavelength: 239 nm) • Column: Waters ACQUITY BEH C18 (2.1 mm×100 mm, 1.7 μm) • Column temperature: constant temperature about 40° C. • Mobile phase: Solution A; water/TFA (2000:1), Solution B; Acetonitrile/TFA (2000:1) • Concentration gradient control: B % 2→100% (15 minutes) • Flow rate: 0.5 mL/min • Injection volume: 2 μL
Each sample was stored at 60° C. under a sealed condition and at 60° C. under 75% RH for 1 week, and an increase or decrease of related substance(s) after the storage was calculated by high-performance liquid chromatographic method on the basis of the area percentage of each peak. Also, the condition of each sample after the storage was observed.

[3] = Thermal stability evaluation (TG/DTA weight change); details: for Thermal stability, conclusion in words: did not show a significant weight change (Succinate Form A: at 25 to 148° C., melting point)
Protocol: (§1) Thermal stability was measured and evaluated by using a thermogravimetry/differential thermal analyzer TG/DTA7200 (SII NanoTechnology Inc.) under the following conditions. • Rate of temperature increase: 10° C./min • Range of temperature increase: 25 to 300° C. • Atmosphere: nitrogen 200 mL/min <Hygroscopicity or Deliquescency Evaluation>
as §1, with “Inc.) under the following conditions • Rate of temperature increase: 10° C./min • Range of temperature increase: 30 to 300° C. • Atmosphere: nitrogen 200 mL/min • or • using a TGA/DSC1 thermogravimetric analyzer (manufactured by Mettler Toledo, STARe system)” for “Inc.)”, “nitrogen 50” for “nitrogen 200”

[4] = Table 5, 25° C., relative to weight at 0% RH
[5] = Table 5, change of related substances (peak area %) vs start
[6] = Table 5, stored 1 week at 60° C. sealed, change of related substances (peak area %) vs start
[7] = Table 10, increase or decrease of related substance(s), HPLC area percentage
[8] = Table 10, *1 with hydration stage

Compound	Hygroscopicity or Deliquescency Weight change at 90% RH [1, 4]	Chemical stability 60° C., 75% RH, 1 week (open) [2, 5]	Chemical stability 60° C. (sealed) [2, 6]	Chemical stability, conclusion in words [2]	Hygroscopicity or deliquescency, conclusion in words [1]	Thermal stability, conclusion in words [3]	also measured
CC(=O)NC1CCC(NC(=O)CN2CCN(c3nncc(-c4ccc(C)cc4)n3)CC2)CC1.Cl.Cl (centres unmarked) [Hydrochloride Form B crystal]	5.5%						
CC(=O)NC1CCC(NC(=O)CN2CCN(c3nncc(-c4ccc(C)cc4)n3)CC2)CC1.O=C(O)CO (centres unmarked) [Glycolate Form A crystal]	1.9%	0.02%	0.02%	excellent chemical stability	excellent in the reduced hygroscopicity or deliquescency		Thermal stability TG: weight change ([3]; 70° C.-melting point): 14.4%
CC(=O)NC1CCC(NC(=O)CN2CCN(c3nncc(-c4ccc(C)cc4)n3)CC2)CC1.O=C(O)CC(O)C(=O)O (centres unmarked) [Malate Form A crystal]	15%						Thermal stability TG: weight change ([3]; 25-280° C.): 21.2%
CC(=O)NC1CCC(NC(=O)CN2CCN(c3nncc(-c4ccc(C)cc4)n3)CC2)CC1.Cc1ccc(S(=O)(=O)O)cc1 (centres unmarked) [Tosilate Form B crystal]	7.5%	−0.05%	−0.07%	excellent chemical stability	excellent in the reduced hygroscopicity or deliquescency	excellent thermal stability	Thermal stability TG: weight change ([3]; 25° C.-melting point): 0.7%
CC(=O)NC1CCC(NC(=O)CN2CCN(c3nncc(-c4ccc(C)cc4)n3)CC2)CC1.CC(=O)NC1CCC(NC(=O)CN2CCN(c3nncc(-c4ccc(C)cc4)n3)CC2)CC1.O=S(=O)(O)O.O=S(=O)(O)O.O=S(=O)(O)O.O=S(=O)(O)O.O=S(=O)(O)O (centres unmarked) [Sulfate Form A crystal]	8%						
CC(=O)NC1CCC(NC(=O)CN2CCN(c3nncc(-c4ccc(C)cc4)n3)CC2)CC1.CC(=O)NC1CCC(NC(=O)CN2CCN(c3nncc(-c4ccc(C)cc4)n3)CC2)CC1.O.O.O.O.O=S(=O)(O)O.O=S(=O)(O)O.O=S(=O)(O)O.O=S(=O)(O)O.O=S(=O)(O)O (centres unmarked) [Sulfate Form B crystal]	5%*^1	0.13%	0%	excellent chemical stability	excellent in the reduced hygroscopicity or deliquescency	excellent thermal stability	Hydration state (hydration stage in moisture adsorption) [1]: hydrate; Thermal stability TG: weight change ([3]; 25-93° C.): 4.3%; Thermal stability TG: weight change ([3]; 93-105° C.): 1.6%
CC(=O)NC1CCC(NC(=O)CN2CCN(c3nncc(-c4ccc(C)cc4)n3)CC2)CC1.O=C(O)CCC(=O)O (centres unmarked) [Succinate Form A crystal]	0.4%	0.02%	0.04%	excellent chemical stability	excellent in the reduced hygroscopicity or deliquescency	excellent thermal stability	Thermal stability TG: weight change ([3]; 25-148° C.): 0.0%; Thermal stability TG: weight change ([3]; 148-210° C.): 23.7%
CC(=O)NC1CCC(NC(=O)CN2CCN(c3nncc(-c4ccc(C)cc4)n3)CC2)CC1.O=C(O)C=CC(=O)O (centres unmarked) [Maleate Form B crystal]	7.5%	9.66%	0.02%			excellent thermal stability	Condition of the sample after storage at 60° C., 75% RH, 1 week (open) ([2]; Table 5, remark in words under the value (glycolate: free body was observed at 60° C., 75% RH, 1 week)): (deliquescent); Thermal stability TG: weight change ([3]; 25-90° C.): 0.4%; Thermal stability TG: weight change ([3]; 120-260° C.): 17.6%
CC(=O)NC1CCC(NC(=O)CN2CCN(c3nncc(-c4ccc(C)cc4)n3)CC2)CC1.CS(=O)(=O)O (centres unmarked) [Mesilate Form A crystal]	17%	5.73%	−0.13%			excellent thermal stability	Thermal stability TG: weight change ([3]; 120° C.): 0.8%
CC(=O)NC1CCC(NC(=O)CN2CCN(c3nncc(-c4ccc(C)cc4)n3)CC2)CC1.Cc1ccc(S(=O)(=O)O)cc1.Cc1ccc(S(=O)(=O)O)cc1 (centres unmarked) [Tosilate Form C crystal]	1.4%	0.39%	0.04%	excellent chemical stability	excellent in the reduced hygroscopicity or deliquescency	excellent thermal stability	Thermal stability TG: weight change ([3]; 25° C.-melting point): 1.2%
CC(=O)NC1CCC(NC(=O)CN2CCN(c3nncc(-c4ccc(C)cc4)n3)CC2)CC1.Cl (centres unmarked) [Hydrochloride Form A crystal]	7.5%	−0.01%	−0.01%	excellent chemical stability		excellent thermal stability	Thermal stability TG: weight change ([3]; 25-160° C.): 0.4%
Br.Br.CC(=O)NC1CCC(NC(=O)CN2CCN(c3nncc(-c4ccc(C)cc4)n3)CC2)CC1 (centres unmarked) [Hydrobromide Form F crystal]							Chemical stability 60° C. (sealed) ([2]; Table 10, 1 week, increase or decrease of related substance(s), HPLC area percentage): 0.02%; Chemical stability 60° C., 75% RH, 1 week (open) [2, 7]: 0.12%; Hygroscopicity or Deliquescency Weight change at 90% RH [1, 8]: 3.5%*^1; Hydration state (hydration stage in moisture adsorption) [1]: hydrate; Thermal stability TG: weight change ([3]; Table 10, room temperature −200° C.): 4.8%
Br.CC(=O)NC1CCC(NC(=O)CN2CCN(c3nncc(-c4ccc(C)cc4)n3)CC2)CC1 (centres unmarked) [Hydrobromide Form N crystal]							Chemical stability 60° C., 75% RH, 1 week (open) [2, 7]: 0.00%; Hygroscopicity or Deliquescency Weight change at 90% RH [1, 8]: 7.2%*^1; Hydration state (hydration stage in moisture adsorption) [1]: hydrate; Thermal stability TG: weight change ([3]; Table 10, 25-242° C.): 6.2%
CC(=O)NC1CCC(NC(=O)CN2CCN(c3nncc(-c4ccc(C)cc4)n3)CC2)CC1.O=C(O)C=CC(=O)O (centres unmarked) [Maleate Form A crystal]	22%	0.12%	0.01%	excellent chemical stability		excellent thermal stability	Thermal stability TG: weight change ([3]; no temperature range printed): 0.0%
CC(=O)NC1CCC(NC(=O)CN2CCN(c3nncc(-c4ccc(C)cc4)n3)CC2)CC1.O=C(O)CC(O)(CC(=O)O)C(=O)O (centres unmarked) [Citrate Form A crystal]	7.6%	0.03%	−0.03%	excellent chemical stability		excellent thermal stability	Thermal stability TG: weight change ([3]; 25° C.-melting point): 2.2%
